This is an account of results in paper PMC9732253, “Inhibition of the Phosphatidylinositol-3 Kinase Pathway Using Bimiralisib in Loss-of-Function NOTCH1-Mutant Head and Neck Cancer” (The Oncologist, 2022).

For one assay, the system named is PI3Kβ. As to conditions: compared with PI3Kα and mTOR; cited from earlier work.
The test system of the next assay is NOTCH1-mutant HNSCC. The assay can be described thus: Phase II single-arm trial, tumor response by RECIST 1.1 and survival. It is filed as in vivo, human. As to conditions: for Median OS / Median PFS: all 8 patients; for Median PFS: 95% CI 39-199 days. An excerpt:
Adults with an Eastern Cooperative Oncology Group performance status of ≤2, measurable disease according to Response Evaluation Criteria in Solid Tumors (RECIST) version 1.1,[1] and histologically confirmed recurrent or metastatic (R/M) HNSCC for which no standard curative or life-prolonging therapy was available were eligible. All patients had already received platinum chemotherapy and α-PD1 immunotherapy unless unable to tolerate them. […] Safety was continuously monitored. Demographic and clinical characteristics were summarized using univariate statistics, including mean, median, and standard deviation or frequency and percentage. Objective response rate was summarized by frequency and percentage with a 2-sided 95% […] CI.[5] Duration of response, PFS, and overall survival were analyzed using the Kaplan-Meier method.[6] All statistical analyses were performed using R statistical software (version 3.6.3, R Core Team, 2020). Survival modeling was performed using the “survival” package.[7] […] Time to response was defined as the time from first study drug administration to the first documentation of response (complete or partial). Duration of response was defined as the time from the date of the first confirmed response to the first documentation of disease progression. PFS was defined as the time from first study drug administration to disease progression or death due to any cause. Overall survival was defined as the time from first study drug administration to death due to any cause.

Setting [1] is: number (%) of 6 patients evaluated for efficacy, RECIST 1.1.

Each structure is given as a SMILES string. Values joined by “and” are separate entries in the source; they are usually repeats but may differ in a detail not shown here. Equal entries are not always repeated.

For `Nc1cc(C(F)(F)F)c(-c2nc(N3CCOCC3)nc(N3CCOCC3)n2)cn1` [Bimiralisib, 5-(4,6-dimorpholino-1,3,5-triazin-2-yl)-4-(trifluoromethyl)pyridin-2-amine], the “Potency against PI3Kβ” value with PI3Kβ is “less potency”. In the assay on NOTCH1-mutant HNSCC (6 evaluable patients), this molecule had a Response duration of 111 days. This molecule returned an Objective response rate in the assay on NOTCH1-mutant HNSCC (6 evaluable patients (1/6), RECIST 1.1, 140 mg orally on 2 consecutive days weekly, 95% CI 1-58%) of 17%. For the same molecule, the “Median TTP” value in the assay with NOTCH1-mutant HNSCC (CI: 83-inf) is listed as 167 days (CI: 83-inf). Further, the “Median OS” value in the assay with NOTCH1-mutant HNSCC is 7 months; with NOTCH1-mutant HNSCC (95% CI 39 days-infinity) it was 215 days (CI: 39-inf); in the assay with NOTCH1-mutant HNSCC (95% CI 39 days-infinity, listed as bimiralisib) it was 215 days. Besides, the “Median PFS” value in the assay on NOTCH1-mutant HNSCC is given as 147 days (CI: 39-199); in the assay on NOTCH1-mutant HNSCC (listed as bimiralisib), 147 days. Moreover, the “Response assessment, CR” value in the assay with NOTCH1-mutant HNSCC (setting [1]) is 0 (0%). The “Response assessment, PR” value with NOTCH1-mutant HNSCC (setting [1]) was 1 (17%). Also, the “Reduction in the target lesion size” value in the assay on NOTCH1-mutant HNSCC (one patient with confirmed partial response) stood at 49%. In the assay on NOTCH1-mutant HNSCC (one patient with progressive disease), the “Day of progressive disease” value is on record as 83. In addition, the “Reduction in the target lesion size compared with baseline, final computed tomography scan” value with NOTCH1-mutant HNSCC (patient with confirmed partial response, in study until day 157) is on record as 45%. In addition, the “Day of disease progression” value in the assay with NOTCH1-mutant HNSCC (three patients with confirmed stable disease, one value each) was 91 days and 138 days and 167 days.
